These molecules were tested against BACE1 (Homo sapiens (Human), UniProt P56817) (assay: Cellular Aβ-lowering assay (Aβ40 ELISA, HEK293 cells expressing human APP695)). Details: HEK293 cells stably transfected with human APP695; 18-20 hrs incubation; Aβ40 in supernatant; read-out: BACE1 cell act. Aβ40 IC50.
Assay type: cell-based
Protocol: Cellular Aβ-Lowering Assay:
Human HEK293 cells which are stably transfected with a vector expressing a cDNA of the human APP wt gene (APP695) were used to assess the potency of the compounds in a cellular assay. The cells were seeded in 96-well microtiter plates in cell culture medium (Iscove, plus 10% (v/v) fetal bovine serum, glutamine, penicillin/streptomycin) to about 80% confluence and the compounds were added at a 10× concentration in 1/10 volume of medium without FCS containing 8% DMSO (final concentration of DMSO was kept at 0.8% v/v). After 18-20 hrs incubation at 37° C. and 5% CO2 in a humidified incubator the culture supernatant was harvested for the determination of […] concentrations. 96well ELISA plates (e.g., Nunc MaxiSorb) were coated with monoclonal antibody which specifically recognize the C-terminal end of […] (Brockhaus et al., NeuroReport 9, 1481-1486; 1998). After blocking of non-specific binding sites with e.g. 1% BSA and washing, the culture supernatants were added in suitable dilutions together with a horseradish peroxidase-coupled Aβ detection antibody (e.g., antibody 4G8, Senetek, Maryland Heights, Mo.) and incubated for 5 to 7 hrs. Subsequently the wells of the microtiter plate were washed extensively with Tris-buffered saline containing 0.05% Tween 20 and the assay was developed with tetramethylbenzidine/H2O2 in citric acid buffer. After stopping the reaction with one volume 1 N H2SO4 the reaction was measured in an ELISA reader at 450 nm wavelength. The concentrations of Aβ in the culture supernatants were calculated from a standard curve obtained with known amounts of pure Aβ peptide.

BACE1, sequence (P56817 46-501): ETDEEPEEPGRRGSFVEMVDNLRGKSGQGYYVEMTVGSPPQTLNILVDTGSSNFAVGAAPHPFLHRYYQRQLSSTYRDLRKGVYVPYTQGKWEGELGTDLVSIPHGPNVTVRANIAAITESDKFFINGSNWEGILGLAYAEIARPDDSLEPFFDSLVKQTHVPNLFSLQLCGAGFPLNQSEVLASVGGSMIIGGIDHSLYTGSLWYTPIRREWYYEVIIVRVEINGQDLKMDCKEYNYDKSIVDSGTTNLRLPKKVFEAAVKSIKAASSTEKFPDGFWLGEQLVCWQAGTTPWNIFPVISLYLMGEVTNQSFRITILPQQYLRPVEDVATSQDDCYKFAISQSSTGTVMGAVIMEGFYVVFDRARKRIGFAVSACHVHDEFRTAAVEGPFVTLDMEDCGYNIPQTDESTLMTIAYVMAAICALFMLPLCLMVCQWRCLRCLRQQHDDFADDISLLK

CC1(c2cccc(NCc3ccc(Cl)cc3)c2)COCC(N)=N1 (stereo not drawn) [Example 2, 5-[3-(4-Chloro-benzylamino)-phenyl]-5-methyl-5,6-dihydro-2H-[1,4]oxazin-3-ylamine] and CCCCNc1ccc(F)c([C@]2(C)COCC(N)=N2)c1 [Example 5, (R)-5-(5-Butylamino-2-fluoro-phenyl)-5-methyl-5,6-dihydro-2H-[1,4]oxazin-3-ylamine] are within 1.5-fold of each other in IC50: 450 nM for the first, 340 nM for the second.

Going from CC(C)C(C)Nc1ccc(F)c([C@]2(C)COCC(N)=N2)c1 (stereo partly drawn) [Example 8, (5R)-5-(2-fluoro-5-(3-methylbutan-2-ylamino)phenyl)-5-methyl-5,6-dihydro-2H-1,4-oxazin-3-amine] to C[C@@]1(c2cc(NCC(F)(F)F)ccc2F)COCC(N)=N1 [Example 9, (R)-5-(2-fluoro-5-(2,2,2-trifluoroethylamino)phenyl)-5-methyl-5,6-dihydro-2H-1,4-oxazin-3-amine], the IC50 falls from 2190 nM to 350 nM (6.3-fold). The second is the more potent here.

C[C@@]1(c2cc(NCC(F)F)ccc2F)COCC(N)=N1 [Example 10, (R)-5-[5-(2,2-Difluoro-ethylamino)-2-fluoro-phenyl]-5-methyl-5,6-dihydro-2H-[1,4]oxazin-3-ylamine] and CSCCCNc1ccc(F)c([C@]2(C)COCC(N)=N2)c1 [Example 13, (R)-5-(2-fluoro-5-(3-(methylthio)propylamino)phenyl)-5-methyl-5,6-dihydro-2H-1,4-oxazin-3-amine] are within 1.5-fold of each other in IC50: 410 nM for the first, 310 nM for the second.

Compared with C[C@@]1(c2cc(Nc3cc(F)cc4cc(Cl)cnc34)ccc2F)COCC(N)=N1 [Example 28, [3-((R)-5-Amino-3-methyl-3,6-dihydro-2H-[1,4]oxazin-3-yl)-4-fluoro-phenyl]-(3-chloro-6-fluoro-quinolin-8-yl)-amine], C[C@@]1(c2cc(Nc3cccc4cc(OCCF)cnc34)ccc2F)COCC(N)=N1 [Example 30, [3-((R)-5-Amino-3-methyl-3,6-dihydro-2H-[1,4]oxazin-3-yl)-4-fluoro-phenyl]-[3-(2-fluoro-ethoxy)-quinolin-8-yl]-amine] is 110-fold higher in IC50: 44 nM for the first, 4770 nM for the second. The first is the more potent here.

Compared with C[C@@]1(c2cc(Nc3cc(F)cc4cc(OCC5CC5)cnc34)ccc2F)COCC(N)=N1 [Example 31, [3-((R)-5-Amino-3-methyl-3,6-dihydro-2H-[1,4]oxazin-3-yl)-4-fluoro-phenyl]-(3-cyclopropylmethoxy-6-fluoro-quinolin-8-yl)-amine], C[C@@]1(c2cc(Nc3cccc4cc(OCC(F)(F)F)cnc34)ccc2F)COCC(N)=N1 [Example 32, [3-((R)-5-Amino-3-methyl-3,6-dihydro-2H-[1,4]oxazin-3-yl)-4-fluoro-phenyl]-[3-(2,2,2-trifluoro-ethoxy)-quinolin-8-yl]-amine] is 2.9-fold lower in IC50: 6900 nM for the first, 2360 nM for the second. The second is the more potent here.

Compared with CC1(c2cccc(NC3CCc4cc(Cl)ccc43)c2)COCC(N)=N1 (stereo not drawn) [Example 39, 5-[3-(5-Chloro-indan-1-ylamino)-phenyl]-5-methyl-5,6-dihydro-2H-[1,4]oxazin-3-ylamine], C[C@@]1(c2cc(Nc3ccccc3OCC(F)(F)F)ccc2F)COCC(N)=N1 [Example 42, (R)-5-{2-Fluoro-5-[2-(2,2,2-trifluoro-ethoxy)-phenylamino]-phenyl}-5-methyl-5,6-dihydro-2H-[1,4]oxazin-3-ylamine] is 29-fold higher in IC50: 180 nM for the first, 5200 nM for the second.

Compared with CC1(c2cccc(Nc3ccccc3OC(F)F)c2)COCC(N)=N1 (stereo not drawn) [Example 44, 5-[3-(2-Difluoromethoxy-phenylamino)-phenyl]-5-methyl-5,6-dihydro-2H-[1,4]oxazin-3-ylamine], C[C@@]1(c2cc(NCc3nn(C(F)F)cc3Cl)ccc2F)COCC(N)=N1 [Example 45, (R)-5-{5-[(4-Chloro-1-difluoromethyl-1H-pyrazol-3-ylmethyl)-amino]-2-fluoro-phenyl}-5-methyl-5,6-dihydro-2H-[1,4]oxazin-3-ylamine] is 52-fold lower in IC50: 890 nM for the first, 17 nM for the second. The second is the more potent here.

With “(R)-5-{2-Fluoro-5-[2-(2-fluoro-ethoxy)-phenylamino]-phenyl}-5-methyl-5,6-dihydro-2H-[1,4]oxazin-3-ylamine [Example 43]” the IC50 was 3200 nM.
